This note sets out measurements from US10092577B2, “Sterol derivatives for treating neurosensory hearing loss, and corresponding composition” (AFFICHEM, priority 2014, dated 2018).

In test [1] the test system is spiral ganglion neurons (SGNs). The test can be described thus: Delayed treatment (after two weeks of artificial perilymph following neomycin): eABR thresholds. It counts as in vivo, guinea pigs. The following applies: example 2, delayed treatment, 1 μM; from the fifth week; p<0.01 for DB. The method, then: The studies of examples 1 to 3 were performed on guinea pigs (250-500 g). All the animals were provided with a platinum-iridium electrode inserted into the cochlear in order to mimic a cochlear implant. The experiments were carried out in accordance with the protocol described by […] and collaborators (Shinohara et al., 2002, Proc. Nati. Acad. Sci. USA, 99, 1657-60). The procedure used was the same as in example 1, apart from the difference that, following the infusion of neomycin sulfate, the pumps were filled with artificial perilymph for two weeks. […] There was no eABR stimulation possible in the animals placed under the same conditions as defined above, but not treated by the products DA or DB.

Test [2] has as its system spiral ganglion neurons (SGNs). The test can be described thus: Quantification of the density of the SGNs in Rosenthal's canal and histological analysis of cochlea slices. It counts as in vivo, guinea pigs. The method, then:
The studies of examples 1 to 3 were performed on guinea pigs (250-500 g). All the animals were provided with a platinum-iridium electrode inserted into the cochlear in order to mimic a cochlear implant. The experiments were carried out in accordance with the protocol described by Raphael and collaborators (Shinohara et al., 2002, Proc. Nati. Acad. Sci. USA, 99, 1657-60).
After the final measurement of the eABR threshold, the animals were heavily anaesthetised, intraperitoneally, using sodium pentobarbital (25 mg/kg) and infused intracardially with a saline solution (37° C.), which eliminates blood, then with a cold glutaraldehyde solution (2.5% in a 0.1 M phosphate buffer), which fixes the tissues. The temporal bone was removed, then the bulla was opened to reveal the cochlea. A small window was opened in the apex of the cochlea and the membrane of the round window so as to be able to delicately wash the cochlea with the glutaraldehyde solution. The cochlea was then decalcified in a solution of EDTA (0.1 M in the phosphate buffer) so as to make it possible to make cuts. After decalcification, the cochlea was dehydrated and enclosed in “plastic JB-4” (Polyscience Inc, Warrington, Pa.). The cochlea was sectioned into slices 4 μm thick. […] The six sections of Rosenthal's channel of six slices were analysed for each group of animals (Sigma Pro Scan) so as to count the spiral ganglion neurons. […]

Take `CC(C)CCC[C@@H](C)[C@H]1CC[C@H]2[C@@H]3C[C@@H](NCCc4c[nH]cn4)[C@@]4(O)C[C@@H](O)CC[C@]4(C)[C@H]3CC[C@]12C` [DA, 6β-[2-(1H-imidazol-4-yl)-ethylamino]-cholestane-3β,5α-diol]: the “eABR thresholds, treated group versus control group (artificial perilymph)” value in test [1] is recorded as “no longer a significant difference”. `CC(C)CCC[C@@H](C)[C@H]1CC[C@H]2[C@@H]3C[C@@H](NCCCNCCCCN)[C@@]4(O)C[C@@H](O)CC[C@]4(C)[C@H]3CC[C@]12C` [DB, 6β-[3-(4-aminobutylamino)propylamino]-cholestane-3β,5α-diol]: in test [2] (cochlea slices from the modiolus, axons not distinguishable in animals treated by AP), the “appearance of the axons of the SGNs (histological analysis, FIG. 5)” value was “thin and long”. Further, in test [1], the “eABR thresholds, treated group versus control group (artificial perilymph)” value is reported as “significant difference”.

B1: GDNF: glia cell-line derived neurotrophic factor (protein, UniProt P39905 78-211, looked up)
Glial cell line-derived …: SPDKQMAVLPRRERNRQAAAANPENSRGKGRRGQRGKNRGCVLTAIHLNVTDLGLGYETKEELIFRYCSGSCDAAETTYDKILKNLSRNRRLVSDKVGQACCRPIAFDDDLSFLDDNLVYHILRKHSAKRCGCI
For B1, the “number of SGNs compared to the control group treated with the artificial perilymph” value in test [2] (animals of example 1 (early treatment), GDNF 1 μg/ml, P<0.001) is “significant difference”.
